Experimental data from patent US9170257B2 (priority 2012, dated 2015).
Where two headings read alike, the source gives them in different places.

Assay: Tissue distribution of curcumin and THC at necropsy 15 minutes post-infusion
Parameters: species or system Beagle dogs
Conditions: for Plasma concentration used to calculate Kp: average of end of infusion and 15 minutes post infusion; for concentration at 15 min / Kp at 2 h / Kp at 8 h: both sexes, dog, in vivo, 10 mg/kg; for Kp at 2 h: 2 hr infusion; for Kp at 2 h / Kp at 8 h: H3PO4 stabilized; for Kp at 8 h: 8 hr infusion
Description: The test article will be administered to 8 Beagle dogs by intravenous infusion over two hours (Part A) or eight hours (Part B) as shown in Table 6.
Multiple samples of tissue weighing approximately 1 gram were removed and snap frozen in the presence or absence of phosphoric acid (H3PO4). For all tissue samples, the levels of curcumin and THC were determined using a method developed by the Bioanalytical Department at Nucro-Technics. […] Values that were below the limit of quantification were assigned a value of 0. […] Tissue distribution data was analyzed using, unless stated, the data from 4 dogs and are presented as the mean±standard error (S.E.).

[1] = beagle, read-out: Kp [tissue]/[plasma], Brain Stem
[2] = beagle, read-out: Kp [tissue]/[plasma], Cortex, Brain
[3] = beagle, read-out: Kp [tissue]/[plasma], Hippocampus
[4] = beagle, read-out: Kp [tissue]/[plasma], Kidney
[5] = beagle, read-out: Kp [tissue]/[plasma], Liver
[6] = beagle, read-out: Kp [tissue]/[plasma], Lungs
[7] = beagle, read-out: Kp [tissue]/[plasma], Muscle
[8] = beagle, read-out: Kp [tissue]/[plasma], Pancreas

**Q.** For `COc1cc(CCC(=O)CC(=O)CCc2ccc(O)c(OC)c2)ccc1O` [THC, tetrahydrocurcumin], which “Tissue level, Liver” value (2 hour infusion, Plus H3PO4) is on record?
**A.** Its value is 0.45 ng/g.

**Q.** What about the “Tissue level, Lungs” value (2 hour infusion, Plus H3PO4) of the same molecule?
**A.** The value was 2.14 ng/g.

**Q.** And the “Plasma concentration used to calculate Kp” value (2 hours infusion)?
**A.** The value was 810.9 ng/mL.

**Q.** What about the “Tissue level, Lungs” value (8 hour infusion, Plus H3PO4) of the same molecule?
**A.** Its value is 6.36 ng/g.

**Q.** And the “Plasma concentration used to calculate Kp” value (8 hours infusion)?
**A.** Its value is 104.5 ng/mL.

**Q.** What about the concentration at 15 min (Beagle, 2 hour infusion, No H3PO4, read-out: Tissue level, Brain Stem) of the same molecule?
**A.** The concentration at 15 min was 2.34 ng/g.

**Q.** And the concentration at 15 min (beagle, 2 hour infusion, No H3PO4, read-out: Tissue level, Cortex, Brain)?
**A.** Its concentration at 15 min is 0.68 ng/g.

**Q.** And the concentration at 15 min (beagle, 2 hour infusion, No H3PO4, read-out: Tissue level, Heart)?
**A.** Its concentration at 15 min is 2.51 ng/g.

**Q.** What about the concentration at 15 min (beagle, 2 hour infusion, No H3PO4, read-out: Tissue level, Hippocampus) of the same molecule?
**A.** The concentration at 15 min was 0.75 ng/g.

**Q.** And the concentration at 15 min (beagle, 2 hour infusion, No H3PO4, read-out: Tissue level, Kidney)?
**A.** The concentration at 15 min was 3.06 ng/g.

**Q.** What about the concentration at 15 min (beagle, 2 hour infusion, No H3PO4, read-out: Tissue level, Liver) of the same molecule?
**A.** The concentration at 15 min was 1.9 ng/g.

**Q.** What about the concentration at 15 min (beagle, 2 hour infusion, No H3PO4, read-out: Tissue level, Lungs) of the same molecule?
**A.** Its concentration at 15 min is 25 ng/g.

**Q.** What about the concentration at 15 min (beagle, 2 hour infusion, No H3PO4, read-out: Tissue level, Muscle) of the same molecule?
**A.** The concentration at 15 min was 5.26 ng/g.

**Q.** What about the concentration at 15 min (beagle, 2 hour infusion, No H3PO4, read-out: Tissue level, Pancreas) of the same molecule?
**A.** Its concentration at 15 min is 2.02 ng/g.

**Q.** What about the concentration at 15 min (beagle, 2 hour infusion, No H3PO4, read-out: Tissue level, Striatum) of the same molecule?
**A.** The concentration at 15 min was 6.22 ng/g.

**Q.** And the concentration at 15 min (beagle, 2 hour infusion, No H3PO4, read-out: Tissue level, Urinary Bladder)?
**A.** The concentration at 15 min was 0.84 ng/g.

**Q.** What about the concentration at 15 min (beagle, 2 hour infusion, Plus H3PO4, read-out: Tissue level, Brain Stem) of the same molecule?
**A.** Its concentration at 15 min is 10.6 ng/g.

**Q.** What about the concentration at 15 min (beagle, 2 hour infusion, Plus H3PO4, read-out: Tissue level, Cortex, Brain) of the same molecule?
**A.** Its concentration at 15 min is 3.08 ng/g.

**Q.** And the concentration at 15 min (beagle, 2 hour infusion, Plus H3PO4, read-out: Tissue level, Heart)?
**A.** Its concentration at 15 min is 0.69 ng/g.

**Q.** And the concentration at 15 min (beagle, 2 hour infusion, Plus H3PO4, read-out: Tissue level, Hippocampus)?
**A.** Its concentration at 15 min is 6.46 ng/g.

**Q.** What about the concentration at 15 min (beagle, 2 hour infusion, Plus H3PO4, read-out: Tissue level, Kidney) of the same molecule?
**A.** The concentration at 15 min was 4.25 ng/g.

**Q.** What about the concentration at 15 min (beagle, 2 hour infusion, Plus H3PO4, read-out: Tissue level, Muscle) of the same molecule?
**A.** The concentration at 15 min was 4.19 ng/g.

**Q.** And the concentration at 15 min (beagle, 2 hour infusion, Plus H3PO4, read-out: Tissue level, Pancreas)?
**A.** Its concentration at 15 min is 0.92 ng/g.

**Q.** What about the concentration at 15 min (beagle, 2 hour infusion, Plus H3PO4, read-out: Tissue level, Striatum) of the same molecule?
**A.** The concentration at 15 min was 11.1 ng/g.

**Q.** And the concentration at 15 min (beagle, 2 hour infusion, Plus H3PO4, read-out: Tissue level, Urinary Bladder)?
**A.** Its concentration at 15 min is 0.87 ng/g.

**Q.** What about the Kp at 2 h [1] of the same molecule?
**A.** The Kp at 2 h was 0.0037.

**Q.** And the Kp at 2 h [2]?
**A.** Its Kp at 2 h is 0.0006.

**Q.** And the Kp at 2 h [3]?
**A.** The Kp at 2 h was 0.0014.

**Q.** What about the Kp at 2 h [4] of the same molecule?
**A.** The Kp at 2 h was 0.0025.

**Q.** What about the Kp at 2 h [5] of the same molecule?
**A.** Its Kp at 2 h is 0.0028.

**Q.** And the Kp at 2 h [6]?
**A.** Its Kp at 2 h is 0.0078.

**Q.** And the Kp at 2 h [7]?
**A.** Its Kp at 2 h is 0.0011.

**Q.** What about the Kp at 2 h [8] of the same molecule?
**A.** Its Kp at 2 h is 0.0017.

**Q.** What about the Kp at 2 h (beagle, read-out: Kp [tissue]/[plasma], Striatum) of the same molecule?
**A.** Its Kp at 2 h is 0.0039.

**Q.** And the Kp at 2 h (beagle, read-out: Kp [tissue]/[plasma], Urinary Bladder)?
**A.** The Kp at 2 h was 0.0014.

**Q.** What about the concentration at 15 min (beagle, 8 hour infusion, No H3PO4, read-out: Tissue level, Brain Stem) of the same molecule?
**A.** The concentration at 15 min was 0.83 ng/g.

**Q.** What about the concentration at 15 min (beagle, 8 hour infusion, No H3PO4, read-out: Tissue level, Cortex, Brain) of the same molecule?
**A.** The concentration at 15 min was 0.06 ng/g.

**Q.** What about the concentration at 15 min (beagle, 8 hour infusion, No H3PO4, read-out: Tissue level, Heart) of the same molecule?
**A.** Its concentration at 15 min is 0.51 ng/g.

**Q.** What about the concentration at 15 min (beagle, 8 hour infusion, No H3PO4, read-out: Tissue level, Hippocampus) of the same molecule?
**A.** The concentration at 15 min was 0.01 ng/g.

**Q.** And the concentration at 15 min (beagle, 8 hour infusion, No H3PO4, read-out: Tissue level, Kidney)?
**A.** The concentration at 15 min was 1.32 ng/g.

**Q.** What about the concentration at 15 min (beagle, 8 hour infusion, No H3PO4, read-out: Tissue level, Liver) of the same molecule?
**A.** The concentration at 15 min was 2.63 ng/g.

**Q.** What about the concentration at 15 min (beagle, 8 hour infusion, No H3PO4, read-out: Tissue level, Lungs) of the same molecule?
**A.** Its concentration at 15 min is 10.8 ng/g.

**Q.** And the concentration at 15 min (beagle, 8 hour infusion, No H3PO4, read-out: Tissue level, Muscle)?
**A.** Its concentration at 15 min is 0.38 ng/g.

**Q.** What about the concentration at 15 min (beagle, 8 hour infusion, No H3PO4, read-out: Tissue level, Pancreas) of the same molecule?
**A.** Its concentration at 15 min is 0.34 ng/g.

**Q.** What about the concentration at 15 min (beagle, 8 hour infusion, No H3PO4, read-out: Tissue level, Striatum) of the same molecule?
**A.** The concentration at 15 min was 1.12 ng/g.

**Q.** What about the concentration at 15 min (beagle, 8 hour infusion, No H3PO4, read-out: Tissue level, Urinary Bladder) of the same molecule?
**A.** The concentration at 15 min was 1.37 ng/g.

**Q.** And the concentration at 15 min (beagle, 8 hour infusion, Plus H3PO4, read-out: Tissue level, Brain Stem)?
**A.** The concentration at 15 min was 3.02 ng/g.

**Q.** And the concentration at 15 min (beagle, 8 hour infusion, Plus H3PO4, read-out: Tissue level, Cortex, Brain)?
**A.** The concentration at 15 min was 0.49 ng/g.

**Q.** And the concentration at 15 min (beagle, 8 hour infusion, Plus H3PO4, read-out: Tissue level, Heart)?
**A.** The concentration at 15 min was 0.03 ng/g.

**Q.** What about the concentration at 15 min (beagle, 8 hour infusion, Plus H3PO4, read-out: Tissue level, Hippocampus) of the same molecule?
**A.** Its concentration at 15 min is 1.13 ng/g.

**Q.** What about the concentration at 15 min (beagle, 8 hour infusion, Plus H3PO4, read-out: Tissue level, Kidney) of the same molecule?
**A.** Its concentration at 15 min is 2.04 ng/g.

**Q.** What about the concentration at 15 min (beagle, 8 hour infusion, Plus H3PO4, read-out: Tissue level, Liver) of the same molecule?
**A.** Its concentration at 15 min is 2.25 ng/g.

**Q.** And the concentration at 15 min (beagle, 8 hour infusion, Plus H3PO4, read-out: Tissue level, Muscle)?
**A.** Its concentration at 15 min is 0.93 ng/g.

**Q.** And the concentration at 15 min (beagle, 8 hour infusion, Plus H3PO4, read-out: Tissue level, Pancreas)?
**A.** The concentration at 15 min was 1.34 ng/g.

**Q.** And the concentration at 15 min (beagle, 8 hour infusion, Plus H3PO4, read-out: Tissue level, Striatum)?
**A.** Its concentration at 15 min is 3.14 ng/g.

**Q.** What about the concentration at 15 min (beagle, 8 hour infusion, Plus H3PO4, read-out: Tissue level, Urinary Bladder) of the same molecule?
**A.** The concentration at 15 min was 1.11 ng/g.

**Q.** And the Kp at 8 h [1]?
**A.** Its Kp at 8 h is 0.0289.

**Q.** What about the Kp at 8 h [2] of the same molecule?
**A.** The Kp at 8 h was 0.0047.

**Q.** What about the Kp at 8 h (beagle, read-out: Kp [tissue]/[plasma], Heart) of the same molecule?
**A.** Its Kp at 8 h is 0.0003.

**Q.** What about the Kp at 8 h [3] of the same molecule?
**A.** The Kp at 8 h was 0.0108.

**Q.** What about the Kp at 8 h [4] of the same molecule?
**A.** The Kp at 8 h was 0.0195.

**Q.** What about the Kp at 8 h [5] of the same molecule?
**A.** The Kp at 8 h was 0.0215.

**Q.** And the Kp at 8 h [6]?
**A.** Its Kp at 8 h is 0.0609.

**Q.** And the Kp at 8 h [7]?
**A.** The Kp at 8 h was 0.0089.

**Q.** And the Kp at 8 h [8]?
**A.** The Kp at 8 h was 0.0128.
